This note sets out measurements from patent US20220251152A1, “COMPOSITIONS AND METHODS FOR SELECTIVE PROTEIN DEGRADATION” (Novartis AG, priority 2019, published 2022).

In test [1] the target is T1, IKZF3 136-180 and 236-249-tagged NanoLuciferase (Homo sapiens, UniProt Q96SW2+Q9UKT9, DEL181-196/S197T).
T1 construct: expressed in transfected cells; host or cells: HEK293T
The test is classed as cell-based. To be noted: 1-hour pre-treatment (10 μM MG132; 128 or 12.8 ng/mL cyclohexamide).
Procedure: DMSO was included as a vehicle control. Luminescence was measured by reading each 384-well plate on a ViewLux® with 1-second and 5-second exposures. The data was imported into Spotfire® and visualizations were made by doing a NC3 normalization according to the following formula: 100*([Luminescence]/[DMSO]).

For test [2], the system named is IKZF3 136-180 and 236-249-tagged NanoLuciferase. Particulars: 10 μM MG132 one-hour pre-treatment, then 100 μM lenalidomide.
Source text: Samples were pelleted, lysed, run on a protein gel, transferred to a membrane, probed with antibody and developed with film.
Test [3] deals with IKZF3 136-180 and 236-249-tagged CD19 (Homo sapiens, UniProt P15391). To be noted: 10 μM MG132 pre-treatment, 10 μM lenalidomide.
Procedure: In particular, flow cytometry analysis was conducted to determine whether there was a difference between the total amount of target protein degraded and the total amount of target protein expressed on the cell surface.
CD19 was stained with anti-human CD19 antibody (BD Pharmingen 555413).
Test [4] deals with IKZF3 degron-tagged melanogenesis associated transcription factor (MITF). The test can be described thus: Western blot of IKZF3-tagged MITF in HEK293T cells. The test is classed as cell-based, human. To be noted: MG132 treatment. As to the method: IKZF3-based degradation tags were evaluated for their ability to facilitate the degradation of melanogenesis associated transcription factor (MITF) or avian myelocytomatosis viral oncogene (MYC) homolog by Western blot. In addition to the IKZF3-based degradation tags, MITF and MYC were also fused to a FLAG tag to facilitate their detection using an anti-FLAG antibody.
DMSO was used as vehicle control.

For test [5], the system named is HilD-tagged CAR19 or FurON-CAR19 (NFAT luciferase reporter). The test can be described thus: JNL NFAT luciferase reporter assay, lenalidomide dose-response at three treatment time points. The test is classed as cell-based, human.
Procedure: This study used the JNL cell line described above, which is a Jurkat cell line modified with an NFAT luciferase reporter. Co-culturing of CAR19-expressing JNL cells and CD19-expressing B cells activates the NFAT signaling, leading to luciferase expression.
For target cell co-culture, K562 cells or CD19-expressing K562 cells were added to each well containing JNL cells and cultured on a GNF Systems Ultra-high throughput screening system in a 37° C. and 5% CO2 incubator.
Another test deals with T2, HilD-Tau (wild type) (Homo sapiens, UniProt P10636+Q96SW2).
T2 construct: expressed in transfected cells; host or cells: HEK293T
The test can be described thus: Quantification of HilD-Tau degradation by Western analysis in HEK293T cells. The class given is cell-based. To be noted: 1 μM MLN4924 co-treatment including 1 hour pretreatment.

The target of test [6] is T3, CAR19-CARBtag (Homo sapiens, UniProt Q96SW2+Q9UKS7, DEL175-229).
T3 construct: signal peptide […]; 16GS linker […]; expressed in transfected cells; host or cells: Jurkat NFAT luciferase (JNL) cells, lentiviral infection at MOI 4
As to the kind of experiment: CAR19-CARBtag dose response in Jurkat NFAT luciferase cells, Western blot. The test is classed as cell-based. To be noted: 10-0.001 μM, 24 hours; FIG. 38A. As for the experimental part: (§1) Cells were expanded for one week before using. […] All cells were harvested at 24 hours after initial compound treatment for western blotting and flow cytometry analysis.
The gels were run in duplicate, one for actin and the other for either V5 or CD3Z.
(In general: In western blotting, separated proteins are transferred to a membrane and probed.)

A further test concerns the target T4, CARBtag-MITF-FLAG (Homo sapiens, UniProt O75030+Q9UKS7).
T4 construct: 16GS linker […]; MITF (NM_000248); expressed in transfected cells; host or cells: HEK293T (ATCC CRL-3216), transient, FuGene HD, CMV promoter vector
As to the kind of experiment: Western blot of HEK293T cells transiently transfected with CARBtag-MITF-FLAG. The class given is cell-based. Particulars: 10 μM, 1 μM, 0.1 μM, or 0.01 μM Compound I-112 or lenalidomide.

The next test deals with T5, CARBtag-16GS-MITF-FLAG (Homo sapiens, UniProt O75030+Q9UKS7).
T5 construct: MITF (NM_000248); expressed in transfected cells; host or cells: HEK293T (ATCC CRL-3216), transient, FuGene HD, CMV promoter vector
The test can be described thus: CARBtag-16GS-MITF-FLAG degradation in HEK293T cells, Western blot. The class given is cell-based. Particulars: 4-point log dilution from 10 μM, 24 hours, FIG. 39.

Another test deals with CD19-16GS-HilD-V5. As to the kind of experiment: CD19-16GS-HilD-V5 expression in HEK293T cells, Western blot. The test is classed as cell-based. Particulars: different doses, 24 hours, data not shown. As for the experimental part:
Cellular gene expression and treatment: HEK293T (ATCC CRL-3216) cells were cultured in DMEM with 10% FBS and pen/strep at 37° C. and 5% CO2. The cells were transfected with either CARBtag-16GS-MITF-FLAG or CARBtag-16GS-MITF-FLAG and CD19-16GS-HilD-V5 using FuGene HD (Promega E2311) using a 3:1 FuGene HD to DNA ratio. […] Cells were treated with the indicated compound for 24 hours and then were prepared for western blot.
The gels were run in triplicate (one for each antibody).

In another test the target is IKZF2 (Homo sapiens, UniProt Q96SW2+Q9UKS7). As to the kind of experiment: Degradation of IKZF2. The class given is cell-based.
A further test addresses IKZF3 (Homo sapiens, UniProt Q96SW2+Q9UKT9). The test can be described thus: Degradation of IKZF3. The class given is cell-based.
Test [7] addresses T3, CAR19-CARBtag. The test can be described thus: CAR19-CARBtag dose response in Jurkat NFAT luciferase cells, flow cytometry. The class given is cell-based. To be noted: 10-0.001 μM, 24 hours; FIG. 38B. As to the method: as §1
After incubation the cells were washed using PBS.

Test [8] deals with T3, CAR19-CARBtag. As to the kind of experiment: Jurkat NFAT luciferase (JNL) CAR functional assay, CAR19-CARB-tag cells. The class given is cell-based. To be noted: 8-point dilution, 10 μM top, 15 hours pre-incubation; FIG. 38C. As for the experimental part:
Half of the 8-point Compound I-112 treated cells received 20 μl of K562 and the other half received 20 μl of Nalm6 cells.

In another test the target is IKZF1 (Homo sapiens, UniProt Q13422+Q96SW2). As to the kind of experiment: Degradation of IKZF1. The class given is cell-based.
Test [9] addresses T3, CAR19-CARBtag. The test can be described thus: Western blot of JNL cells expressing CAR19-CARBtag. The test is classed as cell-based. To be noted: various doses of Compound I-112 for 24 hours.
Test [10] relates to CAR19 fused to HilD tag and/or FurON. As to the kind of experiment: Western blot of CAR19 fused to HilD tag and/or FurON in JNL cells. Particulars: 10 μM lenalidomide, 24 hours; FurON constructs with 1 μM bazedoxifene. The test is classed as cell-based, human.
Procedure: Viruses were prepared from maxi preps and used to transduce JNL cells. Either 275 μL of viral supernatant or 700 μL of viral supernatant was used for transduction. JNL cells are Jurkat cells engineered with a luciferase gene under control of the NFAT promoter.
Briefly, cells were diluted to 0.5×10^6 in 3 mL total in 6 well dishes. […] Bazedoxifene was added at a final concentration of 1 μM to every well that contained a cell line expressing a fusion comprising FurON. […] Cells were incubated at 37° C. and 5% CO2 overnight.
Lysates were centrifuged, supernatant transferred to new tubes and protein quantities read by Lowry Assay (BioRad 5000111). Each sample was normalized to 30 μg total protein in a 20 μL volume with 4× sample buffer (Thermo Scientific NP0007) and 10× reducing agent (Thermo Scientific NP0009). Samples were subjected to Western blot analysis using a mouse anti-V5 antibody (Thermo Scientific MA5-15253) at 1:1000 dilution, a mouse anti-actin antibody (Sigma Aldrich A5441) at 1:10000 dilution, and/or a mouse anti-CD3z antibody (BD 551034) at 1:1000 dilution.
Cells were harvested and subjected to Western blot as described above using a mouse anti-actin antibody (Sigma Aldrich A5441) at 1:10000 dilution or a mouse anti-CD3zeta antibody (BD 551034) at 1:1000 dilution.

“Also recorded” adds a separate entry of the source. Where a SMILES comes first, the peptide text is derived from it. The star is where a group is joined. Cbz = O=C(OCc1ccccc1)*

Procedure for CARBtag-16GS-MITF-FLAG: Lysates were centrifuged, supernatant transferred to new tubes and protein quantities read by Lowry Assay (BioRad 5000111). Each sample was normalized to 30 μg total protein in a 20 μl volume with 4× sample buffer (Thermo Scientific NP0007) and 10× reducing agent (Thermo Scientific NP0009). […] The gels were run in triplicate (one for each antibody).
Procedure for HilD-Tau (wild type): One day prior to transfection, HEK293T cells were plated at a density of 150,000 per well in a 24 well plate. […] Cells were incubated overnight. […] Plates were incubated on ice with occasional shaking for 15 minutes. Lysate was then cleared by centrifugation at 15000 g, 4° C. for 15 minutes. LDS buffer and reducing agent were added to the cleared lysate and then samples were heated at 95° C. for 8 minutes. Samples were run on a 10% bis-tris gel at 150V for 70 minutes. Blots were transferred using the Biorad turboblot (Mixed molecular weight setting). Blots were probed with DAKO Tau (total tau) (Dako #A0024), actin (Cell signaling technologies #3700S), and AT8 (phospho-Tau) (Thermo Fisher #MN1020).

Regarding `C[C@@H]1C[C@@H]([C@H](O)CC2CC(=O)NC(=O)C2)C(=O)[C@@H](C)C1` [cyclohexamide], the “effect of pre-treatment on lenalidomide-dependent degradation of NanoLuciferase” value in test [1] is “No obvious reduction”.
Turning to `CC(C)C[C@@H](C=O)NC(=O)[C@H](CC(C)C)NC(=O)[C@H](CC(C)C)NC(=O)OCc1ccccc1` [MG132] (Cbz-Leu-Leu-Leu-aldehyde), in test [2], the “effect of MG132 on lenalidomide-dependent degradation” value was “not observed; also recorded: blocked”. Also, the “effect of MG132 on lenalidomide-induced reduction of surface CD19” value in [3] is given as “partially blocked”. Further, the “effect of pre-treatment on lenalidomide-dependent degradation of NanoLuciferase” value in test [1] is “blocked”. Further, in test [4], the “effect of MG132 on lenalidomide-dependent degradation of tagged MITF” value is on record as “blocked”. The “rescue by MG132 of lenalidomide-induced reduction of reporter signal” value in test [5] (HilD-tagged CAR19 or lysine-free-HilD-tagged CAR19 (constructs 769, 770)) was “partially rescued”. In addition, in test [5] (construct 767, MG132 5 hours prior to target cells), the “rescue by MG132 of lenalidomide-induced reduction of reporter activation” value is listed as “mostly rescued”.
Take `NS(=O)(=O)OC[C@@H]1C[C@@H](n2ccc3c(N[C@H]4CCc5ccccc54)ncnc32)C[C@@H]1O` [MLN4924]: the “effect of MLN4924 on lenalidomide-induced degradation of Tau” value at HilD-Tau (wild type) is “sensitive; also recorded: prevented degradation of Tau”.
Turning to `O=C1CCC(N2Cc3cc(C4CCN(Cc5ccc(F)cc5)CC4)ccc3C2=O)C(=O)N1` (stereo not shown) [Compound I-112, 3-(5-(1-(4-fluorobenzyl)piperidin-4-yl)-1-oxoisoindolin-2-yl)piperidine-2,6-dione], the “protein levels of CAR19-CARBtag (Western blot)” value at CAR19-CARBtag [6] is recorded as “dose-dependent decrease”. Also, the “degradation of CARB-tagged MITF” value on CARBtag-MITF-FLAG was “I-112-specific degradation of the CARB-tagged MITF”. In addition, the “degradation of CARB-tagged MITF (Western blot)” value on CARBtag-16GS-MITF-FLAG is on record as “effectively degraded”. The “expression of CD19-HilDtag (Western blot)” value in the test with CD19-16GS-HilD-V5 is reported as “remained constant”. In addition, the “degradation of IKZF2” value on IKZF2 was “specifically degrade IKZF2”. For the same molecule, the “degradation of IKZF3” value at IKZF3 was “not IKZF1 or IKZF3”. Also, on CAR19-CARBtag [7], the “CAR surface expression in JNL CAR19-CARBtag cells” value is recorded as “reduced CAR surface expression”. Further, the “response of CAR19-CARBtag cells to CD19+ Nalm6 cells (NFAT luciferase)” value on CAR19-CARBtag [8] is reported as “reduced in a dose-dependent manner”. Also, the “degradation of IKZF1” value at IKZF1 is on record as “not IKZF1 or IKZF3”. Moreover, the “degradation of CAR19-CARBtag” value at CAR19-CARBtag [9] was “dose-responsive degradation of CAR19-CARBtag”.

B1: construct 765: signal peptide, FurOn, and CAR19 (protein)
chain: RSSLALSLTADQMVSALLDAEPPILYSEYDPTRPFSEASMMGLLTNLADRELVHMINWAKRVPGFVDLALHDQVHLLECAWMEILMIGLVWRSMEHPGKLLFAPNLLLDRNQGKCVEGGVEIFDMLLATSSRFRMMNLQGEEFVCLKSIILLNSGVYTFLSSTLKSLEEKDHIHRVLDKITDTLIHLMAKAGLTLQQQHQRLAQLLLILSHIRHMSSKRMEHLYSMKCKNVVPLSDLLLEMLDAHRLGTGAEDPRPSRKRRSLGDVGEIVMTQSPATLSLSPGERATLSCRASQDISKYLNWYQQKPGQAPRLLIYHTSRLHSGIPARFSGSGSGTDYTLTISSLQPEDFAVYFCQQGNTLPYTFGQGTKLEIKGGGGSGGGGSGGGGSQVQLQESGPGLVKPSETLSLTCTVSGVSLPDYGVSWIRQPPGKGLEWIGVIWGSETTYYQSSLKSRVTISKDNSKNQVSLKLSSVTAADTAVYYCAKHYYYGGSYAMDYWGQGTLVTVSSTTTPAPRPPTPAPTIASQPLSLRPEACRPAAGGAVHTRGLDFACDIYIWAPLAGTCGVLLLSLVITLYCKRGRKKLLYIFKQPFMRPVQTTQEEDGCSCRFPEEEEGGCELRVKFSRSADAPAYQQGQNQLYNELNLGRREEYDVLDKRRGRDPEMGGKPRRKNPQEGLYNELQKDKMAEAYSEIGMKGERRRGKGHDGLYQGLSTATKDTYDALHMQALPPR
With B1, the “effect of lenalidomide on the CAR construct (Western blot)” value in [10] is given as “did not have any impact”.
